ChEMBL document CHEMBL1141463, “In vitro anti-inflammatory activity of 3-O-methyl-flavones isolated from Siegesbeckia glabrescens” (Bioorg Med Chem Lett, 2008)
Active and inactive are the calls of the source. The rule behind the calls is not given here.

Columns and labels:
[1] = Peroxynitrite scavenging activity assessed as inhibition of DHR 123 oxidation; type: functional
BV-2 [2] = assay: Inhibition of LPS-induced NO production in mouse BV2 cells; type: functional, cell-based
BV-2 [3] = assay: Decrease in iNOS protein expression in LPS-activated mouse BV2 cells at 20 uM; type: functional, cell-based

SMILES | SC50 [1] [µM] | IC50 (BV-2 [2]) [µM] | Activity (BV-2 [3])
CC(C)(S)[C@@H](N)C(=O)O | 5.13 | – | –
COc1c(-c2ccc(O)c(O)c2)oc2cc(O)cc(O)c2c1=O [3-O-METHYLQUERCETIN] | 0.77 | 3.8 | Active
O=c1c(O)c(-c2ccc(O)c(O)c2)oc2cc(O)cc(O)c12 [QUERCETIN] | – | 29.6 | –
CNC(=N)NCCC[C@H](N)C(=O)O [TILARGININE] | – | 13.2 | –
